# Source: patent publication US10500167B2, “Droplet-embedded microfibers, and methods and devices for preparing and using same” (TRUSTEES OF PRINCETON UNIVERSITY, priority 2014, dated 2019)
# How the values were obtained:
# [1] = retention and selective release of cargo from alginate-in-oil-in-alginate fibers; format: physicochemical
# Description: The concentration of alginate-PVA solution in the inner alginate compartment was kept the same as the alginate fiber. As for the cargos, 0.5% (v/v) 200 nm orange fluorescent particles (FluoSpheres, Invitrogen), 1% (w/v) FITC conjugated BSA, or 0.04% (v/v) of 190 nm Dragon Green fluorescent particles (Uniform Dyed Microspheres, Bangs Laboratories, Inc.) were mixed with the alginate solution. For water-based magnetic particles, 2% (v/v) of 1 μm-magnetic polystyrene particles were mixed in the alginate solution. Chemicals not indicated with vendors were purchased from Sigma-Aldrich.
# Multicompartment fibers were collected as suspensions in DI water or wound between two rotating needles controlled by a motor (Barnant Motor Mixer, Model No. 700-5412). […] For selective dissolution of the cargos from the oil compartment of the fibers, ethanol (Reagent alcohol, BDH) was added to the fiber suspensions. The de-cross-linking agent, 160 mM sodium citrate (Na3C6H5O7, Sigma-Aldrich) in DI water was used as calcium chelator to degrade the alginate fiber or inner alginate particles.
# As a model particle cargo, 200 nm fluorescent nanoparticles were added to the inner alginate particle to produce fluorescent core microfibers (FIG. 2, panel a, and FIG. 8, panel a).
# As a non-limiting example, ethanol was used to affect oil phase removal. The oil phase, which was a solution of mineral oil, 5% (v/v) undecanol, and 2 wt % Span 80 surfactant, was slightly miscible with ethanol, and thus was able to slowly escape the oil microcompartments in the fiber in the presence of ethanol. Alginate-in-oil-in-alginate fibers were prepared with 0.3 mg·mL^−1 of a lipophilic fluorescent dye, Nile Red, in the oil droplets, and green fluorescent nanoparticles of 190 nm diameter in the inner alginate particles; one fiber sample was immersed in water, and the second fiber sample was immersed in an ethanol/water solution.
# [2] = retention and release of dissolved compounds from hydrophobic PEG-DA droplet-in-fibers; format: physicochemical
# Description: FIG. 18 illustrates hydrophobic droplet-in-fibers wrapped around needles immersed in water. On the left, the fiber precursor solution contained 76 vol % PEG250DA, 20 vol % PEG700DA and 4 vol % photoinitiator. On the right, the fiber precursor solution contained 96 vol % PEG250DA and 4 vol % photoinitiator. Both fibers contained aqueous droplets with 1 wt % erioglaucine (blue dye).
# [3] = dissolution of eugenol droplets embedded in the fiber in water; format: physicochemical; conditions: 100% eugenol droplets
# Experimental: (§1) For the oil droplet compartment, mineral oil with 2 wt % Span 80 was used in general. For solidifying inner alginate droplets to prevent them from escaping the oil compartment, 5% (v/v) of calcium chloride-saturated undecanol was mixed with the oil solution. The concentrations of the cargos to be carried in the oil compartment were 0.3 mg·mL^−1 for Nile red, 0.8% (v/v) for magnetic particles in oil-phase (EMG 909, FerroTec), and 10 and 20% (v/v) for eugenol. […] The final concentration of undecanol in the oil solution was 5% (v/v). In the case of using just eugenol for the oil compartment, 2 wt % Span 80 was added to eugenol to form stable droplets.
# The previously described experiments were conducted with mineral oil as the oil phase.
# [4] = system: Escherichia coli (E. Coli, S17-1λpir); assay: antibacterial effect of eugenol oil droplets on E. coli cells encapsulated in alginate fibers; format: cell-based
# Description: For the alginate fiber, 0.5-1 wt % sodium alginate (from brown algae) with 0.1-0.25 wt % poly(vinyl alcohol) (PVA; Molecular weight, 31,000-50,000) dissolved in DI water or PBS was used. PVA is a biocompatible polymer. Also, after collecting the fibers, they were rinsed with DI water or PBS, and stored in DI water to allow any water-soluble components in the fiber to be removed. […] For cell encapsulation, the alginate-PVA solution was filtered through 0.22 μm pore-sized filter prior to mixing with cells. The mammalian cells, NIH/3T3 mouse fibroblast cells (ATCC), were cultured in Dulbecco's modified Eagle medium (DMEM; ATCC) supplemented with 10% (v/v) calf bovine serum and 1% (v/v) penicillin. The cells were prepared to be 1-2×10^5 cells·mL^−1 in the final alginate solution. For encapsulating mammalian cells in the alginate fiber, a solution of 0.5 wt % alginate with 0.1 wt % PVA dissolved in PBS was used. The bacterial cells were Escherichia coli (E. Coli, S17-1λpir) that express green fluorescent protein (GFP) from a plasmid, induced by isopropyl β-D-1-thiogalactopyranoside (IPTG). More details on the cells, including plasmid construction, is recited in Drescher, et al., 2014, Curr. Biol. 24:50. The E. coli cells were prepared in the alginate solution to be 4-5×10^6 cells·mL^−1. For encapsulating bacterial cells, a solution of 1 wt % alginate with 0.25 wt % PVA dissolved in PBS was used.
# as §1
# Multicompartment fibers were collected as suspensions in DI water or wound between two rotating needles controlled by a motor (Barnant Motor Mixer, Model No. 700-5412). Fibers encapsulating the fibroblast cells were collected in DMEM supplemented with 10% calf bovine serum and 1% penicillin, and stored in the 5% CO2-humidified incubator at 37° C. To test the cell viability inside the multicompartment fibers, 2 μM of calcein AM and 4 μM of ethidium-homodimer-1 (EthD-1) from LIVE/DEAD Viability/Cytotoxicity kit for mammalian cells (Molecular Probes) were applied in the DMEM 1 hour prior to the observation under a fluorescent microscope. The cell viability was analyzed with the green (calcein AM) and red (EthD-1) fluorescence images using image analysis software, ImageJ (NIH). E. coli-encapsulated fibers were either collected in LB media containing 1 mM IPTG and 100 μg·mL^−1 Kanamycin (kanamycin sulfate; Fisher). For selective dissolution of the cargos from the oil compartment of the fibers, ethanol (Reagent alcohol, BDH) was added to the fiber suspensions. The de-cross-linking agent, 160 mM sodium citrate (Na3C6H5O7, Sigma-Aldrich) in DI water was used as calcium chelator to degrade the alginate fiber or inner alginate particles.
# The growth of bacterial cells, Escherichia coli (E. coli), in the oil droplet-in-alginate fibers (FIG. 2, panel d) was also tested. The E. coli cells encapsulated in the fibers were suspended in the LB medium for 21 hours, and grew well inside the fibers where they completely surrounded the oil droplets (FIG. 9). The oil microcompartments of the fiber can be used to encapsulate hydrophobic drugs or antibacterial chemicals to test their effects on the cells. For example, eugenol is an antibacterial compound found in clove oil. Eugenol was dissolved in the oil compartment, in a solution comprising mineral oil with 5% (v/v) undecanol and 2 wt % Span 80. […]
compound,measurement,setting,value
fluorescein isothiocyanate (FITC) conjugated bovine serum albumin [FITC-conjugated BSA],time over which fluorescence of encapsulated cargo was observed,"[1]; in inner alginate particle, fiber stored in DI water",at least 20 hours
CCN(Cc1cccc(S(=O)(=O)[O-])c1)c1ccc(C(=C2C=CC(=[N+](CC)Cc3cccc(S(=O)(=O)[O-])c3)C=C2)c2ccccc2S(=O)(=O)[O-])cc1.[Na+].[Na+] [erioglaucine],retention of dissolved compound in aqueous droplets,[2]; PEG-DA (MW=250 g/mol) fiber with 4 vol % photoinitiator,remained within the aqueous compartments
same,release of dye from fiber,"[2]; fiber precursor 76 vol % PEG250DA, 20 vol % PEG700DA, 4 vol % photoinitiator, immersed in water",allowed the blue dye to diffuse out of the fiber
CCN(CC)c1ccc2nc3c4ccccc4c(=O)cc-3oc2c1 [Nile Red],red fluorescence in the fibers,"[1]; ethanol/water solution, after a longer time",no further red fluorescence was observed in the fibers
same,red fluorescence in the oil microcompartments,[1]; fiber immersed over 18 hours in water,red fluorescence of the Nile Red dye in the oil microcompartments was observed
C=CCc1ccc(O)c(OC)c1 [eugenol],diameter of eugenol droplets embedded in the fiber after dissolution,[3]; over a period of 2 hours,50 μm
same,"diameter of eugenol droplets embedded in the fiber, initial",[3]; start,120 μm
same,growth of E. coli around the oil droplets,"[4]; 20% (v/v) eugenol droplets, after 3 hours",slowed down around the oil droplets
same,growth of E. coli around the rim of the droplets,"[4]; 20% (v/v) eugenol droplets, after 15 hours",no growth was observed around the rim of the droplets
same,cell population around the oil droplets,[4]; 20% (v/v) eugenol-oil droplets,significant decrease in the cell population around the oil droplets
same,cell growth around the eugenol droplets compared with oil droplets with no eugenol,[4]; eugenol up to 10% (v/v) in oil droplets,no significant difference in the cell growth
same,overall growth rate of E. coli inside the fiber,"[4]; eugenol up to 10% (v/v) in oil droplets, qualitative",reduction in the overall growth rate of E. coli
same,growth of GFP-expressing E. coli in fiber,"[4]; up to 10% (v/v) eugenol droplets, after 15 hours",grew around the oil droplets and covered most of the fibers completely
